# According to patent US20240252488A1 (KOREA RESEARCH INSTITUTE OF CHEMICAL TECHNOLOGY, priority 2020, published 2024):
# Key:
# FADD−/− Jurkat cells = assay: Necroptosis inhibition assay, TNF-α-induced necroptosis (CellTiter-Glo 2.0); format: cell-based, human; settings: TNF-α 15 ng/mL; for Necroptosis inhibition assay (Rescue %) 1 μM: compound 1 μM; for Necroptosis inhibition assay (Rescue %) 10 μM: compound 10 μM
# Method in brief: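 Necroptosis was triggered by TNF-α at 15 ng/mL final following 30 minutes of compound exposure (0.1, 1 or 10 μM final). Incubation ran 20 to 24 hours at 37° C under 5% CO2; cell ATP was then quantified by luminescence.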
# MLKL [1] = target: T1, MLKL (Homo sapiens, UniProt Q8NB16); assay: MLKL degradation assay in HepG2 cell line (western blot); format: cell-based; set-up: endogenous in cells; host or cells: HepG2 or HaCaT; settings: cell line not given; for Degradation assay (Degradation %) 1 μM: compound 1 μM; for Degradation assay (Degradation %) 10 μM: compound 10 μM
# T1 sequence (Q8NB16 1-471): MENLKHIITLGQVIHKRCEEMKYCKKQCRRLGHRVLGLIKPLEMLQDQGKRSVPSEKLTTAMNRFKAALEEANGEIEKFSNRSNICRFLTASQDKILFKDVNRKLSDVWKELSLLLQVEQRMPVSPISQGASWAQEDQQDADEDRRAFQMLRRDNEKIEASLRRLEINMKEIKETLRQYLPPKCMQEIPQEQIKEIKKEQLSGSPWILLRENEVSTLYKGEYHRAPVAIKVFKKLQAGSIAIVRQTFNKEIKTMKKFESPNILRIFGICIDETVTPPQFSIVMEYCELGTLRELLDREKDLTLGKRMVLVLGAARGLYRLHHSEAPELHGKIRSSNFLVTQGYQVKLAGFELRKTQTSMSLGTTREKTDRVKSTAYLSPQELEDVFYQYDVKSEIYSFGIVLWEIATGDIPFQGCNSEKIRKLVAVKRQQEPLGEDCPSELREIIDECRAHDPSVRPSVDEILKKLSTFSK
# Method in brief: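 After treating HepG2 with test compounds (final 1 μM or 10 μM) for 20-24 h, we lysed cells, equalized protein by BCA and probed MLKL by overnight primary antibody at 4 °C followed by chemiluminescent detection.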
# MLKL [2] = target: T1, MLKL; assay: Measurement of binding affinity with MLKL receptor (competitive binding assay, Kd); set-up: made in house; host or cells: HEK 293 cell line (T7 phage in E. coli BL21-derived host is also described)
# Method in brief: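 qPCR of MLKL eluted from liganded beads served as the read-out, from which Kd was derived. The protein was made in HEK 293 cells with a DNA tag, and test compounds competed with the bead-bound ligand at 0.9% final DMSO.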
Degradation assay (Degradation %) 1 μM (MLKL [1]) [%],Degradation assay (Degradation %) 10 μM (MLKL [1]) [%],Kd (MLKL [2]) [nM],SMILES,Necroptosis inhibition assay (Rescue %) 1 μM (FADD−/− Jurkat cells) [%],Necroptosis inhibition assay (Rescue %) 10 μM (FADD−/− Jurkat cells) [%]
4.45,8.28,330,"Nc1ncc(-c2cnn(C3CCN(CCOCCOCCNC(=O)C4CCN(c5cccc6c5C(=O)N(C5CCC(=O)NC5=O)C6=O)CC4)CC3)c2)nc1C(=O)N[C@@H](C(=O)Nc1ccc(F)cc1)c1ccccc1 (stereo partly drawn) [TDH-213, 3-amino-6-(1-(1-(2-(2-(2-(1-(2-(2,6-dioxopiperidin-3-yl)-1,3-dioxoisoindolin-4-yl)piperidine-4-carboxamido)ethoxy)ethoxy)ethyl)piperidin-4-yl)-1H-pyrazol-4-yl)-N-((R)-2-((4-fluorophenyl)amino)-2-oxo-1-phenylethyl)pyrazine-2-carboxamide]",18.34,44.98
11.62,31.11,66,"Nc1ncc(-c2cnn(C3CCN(CCOCCOCCNC(=O)CNc4cccc5c4C(=O)N(C4CCC(=O)NC4=O)C5=O)CC3)c2)nc1C(=O)N[C@@H](C(=O)Nc1ccc(F)cc1)c1ccccc1 (stereo partly drawn) [TDH-217, 3-amino-6-(1-(1-(2-(2-(2-(2-((2-(2,6-dioxopiperidin-3-yl)-1,3-dioxoisoindolin-4-yl)amino)acetamido)ethoxy)ethoxy)ethyl)piperidin-4-yl)-1H-pyrazol-4-yl)-N-((R)-2-((4-fluorophenyl)amino)-2-oxo-1-phenylethyl)pyrazine-2-carboxamide]",24.76,48.87
37.4,30.04,16,"Nc1ncc(-c2cn(C3CCN(CC4CCN(C(=O)C5CCN(c6cccc7c6C(=O)N(C6CCC(=O)NC6=O)C7=O)CC5)CC4)CC3)nn2)nc1C(=O)OC(C(=O)Nc1ccc(F)cc1)c1ccccc1 (stereo not drawn) [TDH-222, 2-((4-fluorophenyl)amino)-2-oxo-1-phenylethyl 3-amino-6-(1-(1-((1-(1-(2-(2,6-dioxopiperidin-3-yl)-1,3-dioxoisoindolin-4-yl)piperidine-4-carbonyl)piperidin-4-yl)methyl)piperidin-4-yl)-1H-1,2,3-triazol-4-yl)pyrazine-2-carboxylate]",45.31,34.2
29.38,12.51,23,"Nc1ncc(-c2cn(C3CCN(CC4CCN(C(=O)CNc5ccc6c(c5)C(=O)N(C5CCC(=O)NC5=O)C6=O)CC4)CC3)nn2)nc1C(=O)OC(C(=O)Nc1ccc(F)cc1)c1ccccc1 (stereo not drawn) [TDH-223, 2-((4-fluorophenyl)amino)-2-oxo-1-phenylethyl 3-amino-6-(1-(1-((1-((2-(2,6-dioxopiperidin-3-yl)-1,3-dioxoisoindolin-5-yl)glycyl)piperidin-4-yl)methyl)piperidin-4-yl)-1H-1,2,3-triazol-4-yl)pyrazine-2-carboxylate]",34.97,23.64
49.26,56.93,19,"Nc1ncc(-c2cn(C3CCN(CC4CCN(C(=O)CNc5cccc6c5C(=O)N(C5CCC(=O)NC5=O)C6=O)CC4)CC3)nn2)nc1C(=O)OC(C(=O)Nc1ccc(F)cc1)c1ccccc1 (stereo not drawn) [TDH-224, 2-((4-fluorophenyl)amino)-2-oxo-1-phenylethyl 3-amino-6-(1-(1-((1-((2-(2,6-dioxopiperidin-3-yl)-1,3-dioxoisoindolin-4-yl)glycyl)piperidin-4-yl)methyl)piperidin-4-yl)-1H-1,2,3-triazol-4-yl)pyrazine-2-carboxylate]",63.63,67.66
36.29,25.24,8,"Nc1ncc(-c2cn(C3CCN(CC4CCN(c5cccc6c5C(=O)N(C5CCC(=O)NC5=O)C6=O)CC4)CC3)nn2)nc1C(=O)OC(C(=O)Nc1ccc(F)cc1)c1ccccc1 (stereo not drawn) [TDH-225, 2-((4-fluorophenyl)amino)-2-oxo-1-phenylethyl 3-amino-6-(1-(1-((1-(2-(2,6-dioxopiperidin-3-yl)-1,3-dioxoisoindolin-4-yl)piperidin-4-yl)methyl)piperidin-4-yl)-1H-1,2,3-triazol-4-yl)pyrazine-2-carboxylate]",55.04,49.01
,36.06,16,"Nc1ncc(-c2cn(C3CCN(CC4CCN(c5ccc6c(c5)C(=O)N(C5CCC(=O)NC5=O)C6=O)CC4)CC3)nn2)nc1C(=O)OC(C(=O)Nc1ccc(F)cc1)c1ccccc1 (stereo not drawn) [TDH-226, 2-((4-fluorophenyl)amino)-2-oxo-1-phenylethyl 3-amino-6-(1-(1-((1-(2-(2,6-dioxopiperidin-3-yl)-1,3-dioxoisoindolin-5-yl)piperidin-4-yl)methyl)piperidin-4-yl)-1H-1,2,3-triazol-4-yl)pyrazine-2-carboxylate]",36.17,17.82
15.59,16.2,160,"Nc1ncc(-c2ccc(N3CCN(CC4CCN(C(=O)CNc5ccc6c(c5)C(=O)N(C5CCC(=O)NC5=O)C6=O)CC4)CC3)nc2)nc1C(=O)OC(C(=O)Nc1ccc(F)cc1)c1ccccc1 (stereo not drawn) [TDH-233, 2-((4-fluorophenyl)amino)-2-oxo-1-phenylethyl 3-amino-6-(6-(4-((1-((2-(2,6-dioxopiperidin-3-yl)-1,3-dioxoisoindolin-5-yl)glycyl)piperidin-4-yl)methyl)piperazin-1-yl)pyridin-3-yl)pyrazine-2-carboxylate]",23.37,4.71
64.08,54.89,1.6,"Nc1ncc(-c2cnn(C3CCN(CC4CCN(CC(=O)NCCNc5cccc6c5C(=O)N(C5CCC(=O)NC5=O)C6=O)CC4)CC3)c2)nc1C(=O)OC(C(=O)Nc1ccc(F)cc1)c1ccccc1 (stereo not drawn) [TDH-234, 2-((4-fluorophenyl)amino)-2-oxo-1-phenylethyl 3-amino-6-(1-(1-((1-(2-((2-((2-(2,6-dioxopiperidin-3-yl)-1,3-dioxoisoindolin-4-yl)amino)ethyl)amino)-2-oxoethyl)piperidin-4-yl)methyl)piperidin-4-yl)-1H-pyrazol-4-yl)pyrazine-2-carboxylate]",35.55,26.56
45.01,49.89,8.5,"Nc1ncc(-c2cnn(C3CCN(CC4CCN(CC(=O)NCCCNc5cccc6c5C(=O)N(C5CCC(=O)NC5=O)C6=O)CC4)CC3)c2)nc1C(=O)OC(C(=O)Nc1ccc(F)cc1)c1ccccc1 (stereo not drawn) [TDH-235, 2-((4-fluorophenyl)amino)-2-oxo-1-phenylethyl 3-amino-6-(1-(1-((1-(2-((3-((2-(2,6-dioxopiperidin-3-yl)-1,3-dioxoisoindolin-4-yl)amino)propyl)amino)-2-oxoethyl)piperidin-4-yl)methyl)piperidin-4-yl)-1H-pyrazol-4-yl)pyrazine-2-carboxylate]",7.64,19.27
32.16,27.8,4.9,"Nc1ncc(-c2cnn(C3CCN(CC4CCN(CC(=O)NC5CCN(c6cccc7c6C(=O)N(C6CCC(=O)NC6=O)C7=O)CC5)CC4)CC3)c2)nc1C(=O)OC(C(=O)Nc1ccc(F)cc1)c1ccccc1 (stereo not drawn) [TDH-236, 2-((4-fluorophenyl)amino)-2-oxo-1-phenylethyl 3-amino-6-(1-(1-((1-(2-((1-(2-(2,6-dioxopiperidin-3-yl)-1,3-dioxoisoindolin-4-yl)piperidin-4-yl)amino)-2-oxoethyl)piperidin-4-yl)methyl)piperidin-4-yl)-1H-pyrazol-4-yl)pyrazine-2-carboxylate]",42.35,46.48
